Values quoted from earlier work, collected in article PMC9851200, “Multiparameter phenotypic screening for endogenous TFEB and TFE3 translocation identifies novel chemical series modulating lysosome function” (Autophagy, 2022).

How the values were obtained:
Parameters in all cases: method as in original PKIS2 published data
[1] = target: T1, kinases (KINOMEscan panel) (Homo sapiens, UniProt P42680); conditions: kinase TEC; Published KINOMEscan; ref original PKIS2 published data; cited from earlier work
T1 sequence (P42680 1-631): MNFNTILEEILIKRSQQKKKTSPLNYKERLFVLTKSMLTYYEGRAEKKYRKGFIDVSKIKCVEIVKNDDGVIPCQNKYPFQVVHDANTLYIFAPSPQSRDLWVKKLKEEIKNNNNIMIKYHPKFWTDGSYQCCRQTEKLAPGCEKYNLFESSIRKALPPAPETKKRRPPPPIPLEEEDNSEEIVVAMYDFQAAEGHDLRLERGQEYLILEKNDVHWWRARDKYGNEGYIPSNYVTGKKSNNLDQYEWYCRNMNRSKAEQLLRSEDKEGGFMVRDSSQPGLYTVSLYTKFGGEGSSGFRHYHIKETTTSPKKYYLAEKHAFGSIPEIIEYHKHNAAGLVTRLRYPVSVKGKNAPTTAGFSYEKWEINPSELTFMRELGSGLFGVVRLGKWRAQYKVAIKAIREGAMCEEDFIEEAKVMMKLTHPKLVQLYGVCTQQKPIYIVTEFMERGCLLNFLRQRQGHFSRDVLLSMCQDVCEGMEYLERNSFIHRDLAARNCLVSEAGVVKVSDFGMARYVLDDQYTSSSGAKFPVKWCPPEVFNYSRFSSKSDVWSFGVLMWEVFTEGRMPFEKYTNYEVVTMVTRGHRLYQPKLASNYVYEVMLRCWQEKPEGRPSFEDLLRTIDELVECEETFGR

[2] = target: T2, kinases (KINOMEscan panel) (Homo sapiens, UniProt Q92772); conditions: CDKL2; Published KINOMEscan; ref original PKIS2 published data; cited from earlier work
T2 sequence (Q92772 1-493): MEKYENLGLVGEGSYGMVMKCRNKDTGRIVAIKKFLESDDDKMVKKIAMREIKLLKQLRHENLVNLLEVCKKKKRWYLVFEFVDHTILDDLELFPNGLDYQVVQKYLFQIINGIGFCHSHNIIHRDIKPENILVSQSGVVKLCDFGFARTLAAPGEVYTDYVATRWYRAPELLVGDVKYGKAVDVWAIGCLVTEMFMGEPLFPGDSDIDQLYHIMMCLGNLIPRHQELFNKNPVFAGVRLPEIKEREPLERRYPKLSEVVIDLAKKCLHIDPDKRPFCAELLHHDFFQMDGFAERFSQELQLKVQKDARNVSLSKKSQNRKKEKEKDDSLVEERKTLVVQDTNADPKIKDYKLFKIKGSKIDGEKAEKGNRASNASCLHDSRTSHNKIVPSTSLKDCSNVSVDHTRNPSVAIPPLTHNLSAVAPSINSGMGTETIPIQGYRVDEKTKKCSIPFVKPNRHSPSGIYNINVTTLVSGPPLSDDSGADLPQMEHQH

[3] = target: kinases (KINOMEscan panel) (Homo sapiens, UniProt P09769); conditions: FGR; Published KINOMEscan; ref original PKIS2 published data; cited from earlier work
Sequence of kinases (KINOMEscan panel) (Homo sapiens, UniProt P09769) (P09769 whole entry): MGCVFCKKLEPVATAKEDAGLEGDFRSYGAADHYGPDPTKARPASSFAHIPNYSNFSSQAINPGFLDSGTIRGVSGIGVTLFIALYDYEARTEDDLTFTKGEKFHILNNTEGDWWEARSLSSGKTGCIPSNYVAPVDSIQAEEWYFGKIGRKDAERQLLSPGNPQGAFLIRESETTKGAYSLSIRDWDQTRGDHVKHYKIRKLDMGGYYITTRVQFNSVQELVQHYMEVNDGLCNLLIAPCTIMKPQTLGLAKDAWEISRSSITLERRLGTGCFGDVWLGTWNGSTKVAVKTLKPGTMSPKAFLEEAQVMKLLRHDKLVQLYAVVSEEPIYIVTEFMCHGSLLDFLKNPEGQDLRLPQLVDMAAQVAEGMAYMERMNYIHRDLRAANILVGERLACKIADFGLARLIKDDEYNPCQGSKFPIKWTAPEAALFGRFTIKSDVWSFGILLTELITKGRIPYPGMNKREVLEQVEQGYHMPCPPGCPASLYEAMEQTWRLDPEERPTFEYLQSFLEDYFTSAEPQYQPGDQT

[4] = target: kinases (KINOMEscan panel) (Homo sapiens, UniProt P43405); conditions: SYK; Published KINOMEscan; ref original PKIS2 published data; cited from earlier work
[5] = target: kinases (KINOMEscan panel) (Homo sapiens, UniProt P49840); conditions: GSK3A; Published KINOMEscan; ref original PKIS2 published data; cited from earlier work
Sequence of kinases (KINOMEscan panel) (Homo sapiens, UniProt P49840) (P49840 whole entry): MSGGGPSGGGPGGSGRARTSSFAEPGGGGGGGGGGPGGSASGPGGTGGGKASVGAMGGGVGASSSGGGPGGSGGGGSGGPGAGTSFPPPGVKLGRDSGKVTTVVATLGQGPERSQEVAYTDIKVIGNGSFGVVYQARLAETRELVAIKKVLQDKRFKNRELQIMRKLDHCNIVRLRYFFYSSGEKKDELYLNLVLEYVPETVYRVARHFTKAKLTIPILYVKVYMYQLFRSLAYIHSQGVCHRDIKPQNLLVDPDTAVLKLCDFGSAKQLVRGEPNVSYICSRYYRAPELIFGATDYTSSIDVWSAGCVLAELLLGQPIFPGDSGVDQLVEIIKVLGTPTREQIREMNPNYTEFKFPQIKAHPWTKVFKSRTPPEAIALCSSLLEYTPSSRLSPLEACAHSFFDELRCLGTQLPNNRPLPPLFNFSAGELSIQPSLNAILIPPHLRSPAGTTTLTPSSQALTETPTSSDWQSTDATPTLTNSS

[6] = target: T3, kinases (KINOMEscan panel) (Homo sapiens, UniProt Q15835); conditions: Published KINOMEscan; ref original PKIS2 published data; cited from earlier work
T3 sequence (Q15835 1-563): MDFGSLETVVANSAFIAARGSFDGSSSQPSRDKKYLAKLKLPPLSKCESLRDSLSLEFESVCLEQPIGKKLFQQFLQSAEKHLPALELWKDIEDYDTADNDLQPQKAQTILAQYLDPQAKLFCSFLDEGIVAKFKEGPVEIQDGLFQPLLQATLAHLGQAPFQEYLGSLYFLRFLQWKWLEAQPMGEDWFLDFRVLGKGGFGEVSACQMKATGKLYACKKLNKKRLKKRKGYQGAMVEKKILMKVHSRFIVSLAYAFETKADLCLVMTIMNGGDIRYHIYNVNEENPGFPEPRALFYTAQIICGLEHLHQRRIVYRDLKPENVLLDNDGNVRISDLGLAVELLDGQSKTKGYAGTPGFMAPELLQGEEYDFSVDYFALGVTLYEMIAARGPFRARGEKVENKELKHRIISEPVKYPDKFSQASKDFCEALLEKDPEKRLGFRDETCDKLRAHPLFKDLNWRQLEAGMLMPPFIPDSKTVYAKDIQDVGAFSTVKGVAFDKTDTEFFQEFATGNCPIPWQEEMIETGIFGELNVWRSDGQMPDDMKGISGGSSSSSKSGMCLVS

[7] = target: kinases (KINOMEscan panel) (Homo sapiens, UniProt Q9Y6M4); conditions: CSNK1G3; Published KINOMEscan; ref original PKIS2 published data; cited from earlier work
Sequence of kinases (KINOMEscan panel) (Homo sapiens, UniProt Q9Y6M4) (Q9Y6M4 whole entry): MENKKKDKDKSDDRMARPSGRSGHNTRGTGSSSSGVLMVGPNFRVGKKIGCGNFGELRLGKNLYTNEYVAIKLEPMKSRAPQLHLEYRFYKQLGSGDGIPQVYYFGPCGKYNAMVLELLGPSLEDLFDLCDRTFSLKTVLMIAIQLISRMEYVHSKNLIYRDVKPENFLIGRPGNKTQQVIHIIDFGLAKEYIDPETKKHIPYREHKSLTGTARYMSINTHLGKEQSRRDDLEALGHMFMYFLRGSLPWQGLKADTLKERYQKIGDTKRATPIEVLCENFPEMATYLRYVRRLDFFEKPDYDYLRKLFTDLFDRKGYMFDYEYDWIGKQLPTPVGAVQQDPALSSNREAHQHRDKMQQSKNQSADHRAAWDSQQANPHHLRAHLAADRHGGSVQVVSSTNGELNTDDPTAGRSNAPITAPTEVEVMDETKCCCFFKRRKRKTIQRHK

[8] = target: kinases (KINOMEscan panel) (Homo sapiens, UniProt Q9H4A3); conditions: Published KINOMEscan; ref original PKIS2 published data; cited from earlier work
Sequence of kinases (KINOMEscan panel) (Homo sapiens, UniProt Q9H4A3) (Q9H4A3 whole entry): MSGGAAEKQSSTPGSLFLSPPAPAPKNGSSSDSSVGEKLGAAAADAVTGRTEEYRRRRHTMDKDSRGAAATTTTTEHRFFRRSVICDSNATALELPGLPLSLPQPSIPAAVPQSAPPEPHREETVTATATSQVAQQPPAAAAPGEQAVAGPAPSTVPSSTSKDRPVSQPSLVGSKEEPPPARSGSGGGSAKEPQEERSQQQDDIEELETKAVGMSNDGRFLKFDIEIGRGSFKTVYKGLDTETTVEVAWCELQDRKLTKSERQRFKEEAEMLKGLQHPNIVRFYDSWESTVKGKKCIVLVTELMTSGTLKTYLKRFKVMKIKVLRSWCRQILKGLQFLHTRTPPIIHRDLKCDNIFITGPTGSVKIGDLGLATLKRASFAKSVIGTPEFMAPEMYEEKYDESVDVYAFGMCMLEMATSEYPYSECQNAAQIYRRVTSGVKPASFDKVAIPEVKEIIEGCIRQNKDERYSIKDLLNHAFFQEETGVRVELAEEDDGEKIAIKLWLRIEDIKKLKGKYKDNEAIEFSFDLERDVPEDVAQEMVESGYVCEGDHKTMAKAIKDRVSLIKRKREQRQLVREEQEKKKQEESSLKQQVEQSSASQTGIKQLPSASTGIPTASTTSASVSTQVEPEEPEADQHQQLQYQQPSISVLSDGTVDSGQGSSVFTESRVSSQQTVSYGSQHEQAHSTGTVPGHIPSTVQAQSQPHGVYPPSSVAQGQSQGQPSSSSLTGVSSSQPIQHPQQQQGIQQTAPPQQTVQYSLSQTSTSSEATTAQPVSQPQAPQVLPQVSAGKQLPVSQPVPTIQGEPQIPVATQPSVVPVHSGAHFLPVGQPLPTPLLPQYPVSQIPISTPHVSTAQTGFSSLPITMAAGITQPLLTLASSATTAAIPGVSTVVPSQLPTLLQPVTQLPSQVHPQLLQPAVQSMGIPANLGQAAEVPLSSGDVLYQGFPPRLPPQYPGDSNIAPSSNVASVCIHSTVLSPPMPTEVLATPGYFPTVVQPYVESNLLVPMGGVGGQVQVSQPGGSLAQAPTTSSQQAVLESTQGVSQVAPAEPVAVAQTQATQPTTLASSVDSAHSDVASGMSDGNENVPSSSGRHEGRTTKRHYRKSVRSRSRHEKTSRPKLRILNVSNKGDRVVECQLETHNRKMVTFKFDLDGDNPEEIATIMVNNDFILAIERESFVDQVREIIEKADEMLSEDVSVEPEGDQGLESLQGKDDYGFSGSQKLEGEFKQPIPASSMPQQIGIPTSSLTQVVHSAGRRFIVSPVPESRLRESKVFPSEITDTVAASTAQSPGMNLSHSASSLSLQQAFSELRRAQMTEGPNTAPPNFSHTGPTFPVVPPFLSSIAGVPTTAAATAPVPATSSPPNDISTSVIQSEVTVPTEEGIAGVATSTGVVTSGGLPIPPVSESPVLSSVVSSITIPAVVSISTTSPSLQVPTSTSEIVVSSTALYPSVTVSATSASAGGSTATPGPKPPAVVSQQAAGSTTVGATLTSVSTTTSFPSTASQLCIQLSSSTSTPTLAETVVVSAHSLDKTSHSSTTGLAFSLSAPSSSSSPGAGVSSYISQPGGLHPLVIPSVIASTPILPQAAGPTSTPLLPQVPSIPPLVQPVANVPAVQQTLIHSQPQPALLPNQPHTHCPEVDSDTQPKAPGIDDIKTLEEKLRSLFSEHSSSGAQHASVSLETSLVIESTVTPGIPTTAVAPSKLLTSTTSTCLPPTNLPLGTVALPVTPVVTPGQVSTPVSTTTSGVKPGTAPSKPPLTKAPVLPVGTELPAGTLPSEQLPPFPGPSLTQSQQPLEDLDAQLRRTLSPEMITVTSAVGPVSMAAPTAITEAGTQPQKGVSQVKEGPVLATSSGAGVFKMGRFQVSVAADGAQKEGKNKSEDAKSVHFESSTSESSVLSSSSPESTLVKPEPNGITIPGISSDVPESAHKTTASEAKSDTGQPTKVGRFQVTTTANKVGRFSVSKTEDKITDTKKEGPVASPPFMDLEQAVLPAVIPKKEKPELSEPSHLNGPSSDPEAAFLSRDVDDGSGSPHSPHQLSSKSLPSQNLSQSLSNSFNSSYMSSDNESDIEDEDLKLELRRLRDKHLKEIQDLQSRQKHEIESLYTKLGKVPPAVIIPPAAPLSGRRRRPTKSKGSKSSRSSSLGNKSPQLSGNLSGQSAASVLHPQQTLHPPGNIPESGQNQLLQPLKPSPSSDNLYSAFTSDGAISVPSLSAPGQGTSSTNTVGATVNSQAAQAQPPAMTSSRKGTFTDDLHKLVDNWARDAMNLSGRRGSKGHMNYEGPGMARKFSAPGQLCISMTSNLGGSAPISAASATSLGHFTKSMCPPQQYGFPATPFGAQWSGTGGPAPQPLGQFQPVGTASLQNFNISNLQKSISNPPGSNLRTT

Cc1cccc(-c2nc(Nc3ccncc3)c3ccccc3n2)n1 [NK215]
KINOMEscan TEC [1]: 10
KINOMEscan CDKL2 [2]: 10
KINOMEscan FGR [3]: 31
KINOMEscan SYK [4]: 14
KINOMEscan GSK3A [5]: 4
KINOMEscan GRK1 [6]: 0
KINOMEscan CSNK1G3 [7]: 12
KINOMEscan WNK1 [8]: 0
